# From patent US11046691B1 (IDEAYA BIOSCIENCES, INC., priority 2018, dated 2021)
# Molecular target: hMAT2A (Homo sapiens (Human), UniProt P31153)
# Experiment: Phosphate Sensor Fluorescence Assay (MAT2A enzyme inhibition)
# Format: biochemical
# Conditions: L-methionine 500 uM, ATP 500 uM
# In short: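 Recombinant MAT2A preincubated 15 min at room temperature with compound, then reacted 1 h at room temperature with 500 uM L-methionine and 500 uM ATP in Tris pH 7.5 buffer containing PNP/7-MEG.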
# Chain of hMAT2A (P31153 whole entry): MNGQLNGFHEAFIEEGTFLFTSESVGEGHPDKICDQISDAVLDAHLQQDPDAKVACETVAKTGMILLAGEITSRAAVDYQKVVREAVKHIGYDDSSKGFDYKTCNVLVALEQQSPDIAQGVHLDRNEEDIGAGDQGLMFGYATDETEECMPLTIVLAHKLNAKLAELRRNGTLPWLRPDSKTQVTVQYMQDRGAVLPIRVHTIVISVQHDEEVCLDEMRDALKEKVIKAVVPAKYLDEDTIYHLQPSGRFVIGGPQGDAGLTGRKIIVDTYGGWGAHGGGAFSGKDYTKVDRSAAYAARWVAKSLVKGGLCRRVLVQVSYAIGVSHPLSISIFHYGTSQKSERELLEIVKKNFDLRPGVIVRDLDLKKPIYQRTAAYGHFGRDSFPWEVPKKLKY
IC50 (class symbols),IC50 (numeric bound),SMILES
< 200 nM,–,"CNc1nc(=O)n(-c2ccc3[nH]cnc3c2)c2cc(Cl)ccc12 [Example 307, 1-benzimidazol-5-yl-7-chloro-4-(methyl-amino)hydroquinazolin-2-one]"
< 200 nM,–,"CNc1nc(=O)n(-c2ccc(F)c(O)c2)c2cc(Cl)ccc12 [Example 310, 7-chloro-1-(4-fluoro-3-hydroxyphenyl)-4-(methylamino)hydroquinazolin-2-one]"
< 200 nM,–,CNc1nc(=O)n(-c2ccncc2Cl)c2nc(C(F)(F)F)ccc12 [Example 312]
< 200 nM,–,"COCCNc1nc(=O)n(-c2ccccc2Cl)c2nc(C(F)(F)F)ccc12 [Example 317, 1-(2-chlorophenyl)-4-[(2-methoxyethyl)-amino]-7-(trifluoromethyl)pyrido[2,3-d]-pyrimidin-2(1H)-one]"
< 200 nM,–,CC1(Nc2nc(=O)n(-c3ccccc3Cl)c3nc(C(F)(F)F)ccc23)CCC1 [Example 319]
< 200 nM,–,O=c1nc(N[C@H]2C[C@@H](O)C2)c2ccc(C(F)(F)F)nc2n1-c1ccccc1Cl [Example 321]
< 200 nM,–,"CNc1nc(=O)n(-c2ccc3[nH]ncc3c2)c2cc(Cl)ccc12 [Example 328, 1-(1H-indazol-5-yl)-7-chloro-4-(methyl-amino)hydroquinazolin-2-one]"
< 200 nM,–,"CNc1nc(=O)n(-c2cccc(O)c2F)c2cc(Cl)ccc12 [Example 333, 7-chloro-1-(2-fluoro-3-hydroxyphenyl)-4-(methylamino)quinazolin-2(1H)-one]"
< 200 nM,–,"[2H]C([2H])([2H])N(c1nc(=O)n(-c2ccccc2Cl)c2nc(C(F)(F)F)ccc12)C([2H])([2H])[2H] [Example 339, 4-(bis(methyl-d3)amino)-1-(2-chloro-phenyl)-7-(trifluoromethyl)-pyrido[2,3-d]pyrimidin-2(1H)-one]"
200 to 500 nM,–,"O=c1[nH]c(=O)n(-c2ccc3[nH]cnc3c2)c2cc(Cl)ccc12 [Example 340, 1-(1H-benzo[d]imidazol-5-yl)-7-chloro-quinazoline-2,4(1H,3H)-dione]"
< 200 nM,–,"C[C@H]1CCCN1c1nc(=O)n(-c2ccccc2)c2nc(C(F)(F)F)ccc12 [Example 345, 4-((2S)-2-methylpyrrolidin-1-yl)-1-phenyl-7-(trifluoromethyl)pyrido[2,3-d]-pyrimidin-2(1H)-one]"
–,> 10000 nM,"CNc1nc(=O)n(-c2ccccc2)c2cc(Cl)cc(OC(C)C)c12 [Example 349, 7-chloro-4-(methylamino)-5-(methyl-ethoxy)-1-phenylhydroquinazolin-2-one]"
< 200 nM,–,"CNc1nc(=O)n(-c2ccccc2Br)c2cc(C3CC3)ccc12 [Example 351, 1-(2-bromophenyl)-7-cyclopropyl-4-(methylamino)hydroquinazolin-2-one]"
< 200 nM,–,"CNc1nc(=O)n(-c2ccccc2C)c2cc(C3CC3)ccc12 [Example 352, 7-cyclopropyl-4-(methylamino)-1-(2-methylphenyl)hydroquinazolin-2-one]"
< 200 nM,–,"CNc1nc(=O)n(-c2cccc(C3CC3)c2)c2cc(Cl)ccc12 [Example 353, 7-chloro-1-(3-cyclopropylphenyl)-4-(methylamino)hydroquinazolin-2-one]"
< 200 nM,–,CNc1nc(=O)n(-c2cccc(C(F)F)c2)c2cc(Cl)ccc12 [Example 355]
–,> 10000 nM,"O=c1[nH]c(=O)n(-c2ccccc2Cl)c2c(Cl)c(C(F)(F)F)ccc12 [Example 360, 8-chloro-1-(2-chlorophenyl)-7-(trifluoro-methyl)pyrido[2,3-d]pyrimidine-2,4(1H,3H)-dione-1]"

# Further lines, the molecule ahead of its results:
SMILES,IC50 (class symbols),IC50 (numeric bound)
"CN(C)c1nc(=O)n(-c2ccc3[nH]cnc3c2)c2cc(Cl)ccc12 [Example 306, 1-benzimidazol-5-yl-4-(dimethylamino)-7-chlorohydroquinazolin-2-one]",< 200 nM,–
"O=c1nc(NC2CC2)c2ccc(C(F)(F)F)nc2n1-c1ccccc1Cl [Example 308, 1-(2-chlorophenyl)-4-(cyclopropyl-amino)-7-(trifluoromethyl)pyrido[2,3-d]pyrimidin-2(1H)-one]",< 200 nM,–
"CNc1nc(=O)n(-c2ncccn2)c2cc(C3CC3)ccc12 [Example 309, 7-cyclopropyl-4-(methylamino)-1-pyrimidin-2-ylhydroquinazolin-2-one]",1000 to 10000 nM,–
"COc1ccc(F)c(-n2c(=O)[nH]c(=O)c3ccc(Cl)cc32)c1 [Example 311, 7-chloro-1-(2-fluoro-5-methoxyphenyl)-quinazoline-2,4(1H,3H)-dione]",–,> 10000 nM
CNc1nc(=O)n(-c2ccncc2)c2nc(C(F)(F)F)ccc12 [Example 313],500 to 1000 nM,–
CNc1nc(=O)n(-c2ccc(C)nc2)c2nc(C(F)(F)F)ccc12 [Example 314],< 200 nM,–
"O=c1nc(N2CC(F)C2)c2ccc(C(F)(F)F)nc2n1-c1ccccc1Cl [Example 315, 1-(2-chlorophenyl)-4-(3-fluoroazetidin-1-yl)-7-(trifluoromethyl)pyrido[2,3-d]pyrimidin-2(1H)-one]",< 200 nM,–
"O=c1nc(NC2CC3(C2)CS(=O)(=O)C3)c2ccc(C(F)(F)F)nc2n1-c1ccccc1Cl [Example 316, 1-(2-chlorophenyl)-4-((2,2-dioxido-2-thiaspiro[3.3]heptan-6-yl)amino)-7-(trifluoromethyl)pyrido[2,3-d]pyrimidin-2(1H)-one]",200 to 500 nM,–
"N#C[C@H]1C[C@@H](Nc2nc(=O)n(-c3ccccc3Cl)c3nc(C(F)(F)F)ccc23)C1 [Example 318, (1s,3s)-3-((1-(2-chlorophenyl)-2-oxo-7-(trifluoromethyl)-1,2-dihydropyrido[2,3-d]pyrimidin-4-yl)amino)cyclobutane-1-carbonitrile]",< 200 nM,–
"O=c1nc(NC2CCC2)c2ccc(C(F)(F)F)nc2n1-c1ccccc1Cl [Example 320, 1-(2-chlorophenyl)-4-(cyclobutylamino)-7-(trifluoromethyl)pyrido[2,3-d]-pyrimidin-2(1H)-one]",< 200 nM,–
"O=c1nc(NC2(CO)CC2)c2ccc(C(F)(F)F)nc2n1-c1ccccc1Cl [Example 322, 1-(2-chlorophenyl)-4-{[(hydroxy-methyl)cyclopropyl]amino}-7-(trifluoro-methyl)-pyrido[2,3-d]pyrimidin-2(1H)-one]",< 200 nM,–
"O=c1nc(NCC(F)F)c2ccc(C(F)(F)F)cc2n1-c1cccnc1 [Example 325, 4-[(2,2-difluoroethyl)amino]-1-(pyridin-3-yl)-7-(trifluoromethyl)hydro-quinazolin-2-one]",< 200 nM,–
"Nc1nc(=O)n(-c2cccnc2)c2cc(C(F)(F)F)ccc12 [Example 327, 4-amino-1-(pyridin-3-yl)-7-(trifluoro-methyl)hydroquinazolin-2-one]",< 200 nM,–
"CNc1nc(=O)n(-c2ccccc2C)c2cc(Cl)cc(OC)c12 [Example 329, 7-chloro-5-methoxy-4-(methylamino)-1-(2-methylphenyl)hydroquinazolin-2-one]",< 200 nM,–
"O=c1nc(N[C@H]2C[C@H](O)C2)c2ccc(C(F)(F)F)nc2n1-c1ccccc1Cl [Example 334, 1-(2-chlorophenyl)-4-(((1r,3r)-3-hydroxycyc1obutyl)amino)-7-(trifluoro-methyl)pyrido[2,3-d]pyrimidin-2(1H)-one]",< 200 nM,–
"CNc1nc(=O)n(-c2cccnc2)c2cc(C(F)(F)F)ccc12 [Example 341, 4-(methylamino)-1-(pyridin-3-yl)-7-(trifluoromethyl)hydroquinazolin-2-one]",< 200 nM,–
"CNc1nc(=O)n(-c2ccccc2Cl)c2c(Cl)c(C(F)(F)F)ccc12 [Example 342, 8-chloro-1-(2-chlorophenyl)-4-(methylamino)-7-(trifluoromethyl)-hydroquinazolin-2-one]",–,> 10000 nM
"CNc1nc(=O)n(-c2ccccc2)c2c(Cl)c(C(F)(F)F)ccc12 [Example 343, 8-chloro-4-(methylamino)-1-phenyl-7-(trifluoromethyl)hydroquinazolin-2-one]",–,> 10000 nM
"C[C@@H]1CCCN1c1nc(=O)n(-c2ccccc2)c2nc(C(F)(F)F)ccc12 [Example 344, 4-((2R)-2-methylpyrrolidin-1-yl)-1-phenyl-7-(trifluoromethyl)pyrido[2,3-d]-pyrimidin-2(1H)-one]",< 200 nM,–
"O=c1nc(N2CCSC2)c2ccc(C(F)(F)F)nc2n1-c1ccccc1 [Example 346, 1-phenyl-4-(1,3-thiazolidin-3-yl)-7-(trifluoromethyl) pyrido[2,3-d]-pyrimidin-2(1H)-one]",< 200 nM,–
"[2H]C([2H])([2H])Nc1nc(=O)n(-c2ccccc2Cl)c2cc(Cl)ccc12 [Example 347, 7-chloro-1-(2-chlorophenyl)-4-((methyl-d3)amino)quinazolin-2(1H)-one]",< 200 nM,–
"CNc1nc(=O)n(-c2ccccc2)c2cc(Cl)cc(OCC3CC3)c12 [Example 348, 7-chloro-5-(cyclopropylmethoxy)-4-(methylamino)-1-phenylhydro-quinazolin-2-one]",< 200 nM,–
"CNc1nc(=O)n(-c2ccccc2)c2cc(Cl)cc(OCC(F)(F)F)c12 [Example 350, 7-chloro-4-(methylamino)-1-phenyl-5-(2,2,2-trifluoroethoxy)hydroquinazolin-2-one]",< 200 nM,–
"O=c1[nH]c(=O)n(-c2cccc(C(F)F)c2)c2cc(Cl)ccc12 [Example 354, 7-chloro-1-(3-difluoromethylphenyl)-quinazoline-2,4(1H,3H)-dione]",–,> 10000 nM
"O=c1nc(O)c2ccc(Cl)cc2n1-c1ccc2[nH]ncc2c1 [Example 357, 1-(1H-indazol-5-yl)-7-chloro-4-hydroxy-hydroquinazolin-2-one]",1000 to 10000 nM,–
"O=c1[nH]c(=O)n(-c2cnccc2Cl)c2nc(C(F)(F)F)ccc12 [Example 358, 1-(4-chloropyridin-3-yl)-7-(trifluoro-methyl)pyrido[2,3-d]pyrimidine-2,4(1H,3H)-dione]",< 200 nM,–
"O=c1[nH]c(=O)n(-c2cccnc2)c2nc(C(F)(F)F)ccc12 [Example 359, 1-(pyridin-3-yl)-7-(trifluoromethyl)-pyrido[2,3-d]pyrimidine-2,4(1H,3H)-dione]",< 200 nM,–
O=c1[nH]c(=O)n(-c2ccccc2)c2c(Cl)c(C(F)(F)F)ccc12 [Example 361],–,> 10000 nM
